Laboratory results as given in PubChem BioAssay AID2060329 (Molecular Pharmacology Branch, DTP, NCI, 2025).
Where “and” joins values, the source holds several entries; their conditions need not be identical. Identical values can stand only once.

Test system: MCF7 multi-cell spheroids with HUVEC/MSC, viability
Test: Anticancer human tumor MCF7 cell line growth inhibition [IpAb];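 note: spheroids exposed to agents for seven days before readout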
Conditions: for viability, T/C: stronger effect = lower value
Description: Combinatorial screen of targeted agents with ipatasertib and abemaciclib in multi-cell type tumor spheroids
A high-throughput screen of multi-cell type tumor spheroids was designed to identify active combinations of targeted small molecules and ipatasertib or abemaciclib. Complex spheroids include a stromal component modeled by human endothelial cells (HUVEC) and fibroblasts modeled by human mesenchymal stem cells (MSCs). The concentration ranges selected for each drug and investigational agent were based upon clinically achievable concentrations if the clinical Cmax of the agent was known.
Compounds. The drugs and investigational agents: ipatasertib (NSC767898), abemaciclib(NSC768073), selumetinib (NSC741078), trametinib (758246), adavosertib (NSC754352), everolimus (NSC733504), sapanisertib (NSC764658), vemurafenib (NSC761431), venetoclax (NSC766270), copanlisib (NSC809693), apelisib (NSC765974), palbociblib (NSC758247), vemurafenib (NSC761431), dabrafenib (NSC764134), ravoxertinib (NSC781343), BMS-387032 (NSC767048), sotorasib (NSC818433), talazoparib (NSC767125) and afursertib (NSC778305), were obtained from the National Cancer Institute (NCI) Developmental Therapeutics Program Chemical Repository. The FDA-approved anticancer drug set is available from the NCI Developmental Therapeutics Program. […] The stock solutions were prepared in dimethyl sulfoxide (DMSO, Sigma-Aldrich, St. Louis, MO, cat. D2650) at 800-fold the tested concentration and stored at -70 degrees C prior to their use. All drugs and investigational agents were tested over a range starting from a high concentration at or near the clinical Cmax and decreasing in half-log increments. If the clinical Cmax for an agent had not been determined, the highest concentration tested was 10 microM.
NCI60 Cell Culture. NCI60 cell lines were obtained from the NCI Developmental Therapeutics Program Tumor Repository. For each lot of cells, the Repository performed Applied Biosystems AmpFLSTR Identifiler testing with PCR amplification to confirm consistency with the published Identifier STR profile for each cell line. Cells were kept in continuous culture for no more than 20 passages. The optimal seeding densities for each of the cell lines at each time point assessed were determined prior to performing the concentration response studies. Briefly, the NCI60 human tumor lines were grown as monolayers in RPMI 1640 medium supplemented with 10% FBS and 2 mmol/L L-glutamine.
An additional 9 lines were from the NCI60 cell line panel including MDA-MB-231 breast carcinoma, MDA-MB-468 breast carcinoma, MCF7 breast carcinoma, Hs578T breast carcinoma, MALME-3M melanoma, SK-MEL-2 melanoma, SK-OV-3 ovarian carcinoma, DU-145 prostate carcinoma, PC-3 prostate carcinoma, all cell lines along with major genetic alterations are listed on Table 2. Pooled donor human umbilical vein endothelial cells (HUVEC, Lonza, cat. CC-2519) and human mesenchymal stem cells (hMSC, Lonza, cat. PT-2501) were purchased from Lonza (Walkersville, MD).
PDMR cell lines were grown in complete medium (DC medium): Dulbecco's modified Eagle's medium (DMEM)/F12 supplemented with 5% fetal bovine serum (FBS), 2 mM L-glutamine, 100 U/mL penicillin and 100 µg/ml streptomycin, 0.4 µg/ml hydrocortisone, 10 ng/ml epidermal growth factor (EGF) recombinant human protein, 24 µg/mL adenine, and 0.1 mg/mL primocin. During culture from frozen stock vials, PDMR cells were cultured in the same medium containing 10 µM Y-27632 (see Table 3). The PDCs were cultured in complete DMEM/F12 media without 10 microM Y-27632 dihydrochloride for at least two passages prior to the screen. The pooled donor HUVEC and hMSC were cultured in endothelial cell growth medium 2 (PromoCell, Heidelberg, Germany, cat. C-22011) and mesenchymal stem cell growth medium 2 (PromoCell, cat. C-28009), respectively. For all experiments, HUVEC and hMSC were used at passages </=5.
[…]

[1] = curve of first compound, second compound 0.1 µM
[2] = curve of first compound, second compound 0.316 µM
[3] = curve of first compound, second compound 1 µM
[4] = curve of first compound, second compound 3.16 µM
[5] = curve of first compound, second compound 10 µM
[6] = second compound 0.1 µM, first compound 0.00949 µM
[7] = second compound 0.1 µM, first compound 0.03 µM
[8] = second compound 0.1 µM, first compound 0.0949 µM
[9] = second compound 0.1 µM, first compound 0.3 µM
[10] = second compound 0.1 µM, first compound 0.949 µM
[11] = second compound 0.1 µM, first compound 3 µM
[12] = second compound 0.316 µM, first compound 0.00949 µM
[13] = second compound 0.316 µM, first compound 0.03 µM
[14] = second compound 0.316 µM, first compound 0.0949 µM
[15] = second compound 0.316 µM, first compound 0.3 µM
[16] = second compound 0.316 µM, first compound 0.949 µM
[17] = second compound 0.316 µM, first compound 3 µM
[18] = second compound 1 µM, first compound 0.00949 µM
[19] = second compound 1 µM, first compound 0.03 µM
[20] = second compound 1 µM, first compound 0.0949 µM
[21] = second compound 1 µM, first compound 0.3 µM
[22] = second compound 1 µM, first compound 0.949 µM
[23] = second compound 1 µM, first compound 3 µM
[24] = second compound 3.16 µM, first compound 0.00949 µM
[25] = second compound 3.16 µM, first compound 0.03 µM
[26] = second compound 3.16 µM, first compound 0.0949 µM
[27] = second compound 3.16 µM, first compound 0.3 µM
[28] = second compound 3.16 µM, first compound 0.949 µM
[29] = second compound 3.16 µM, first compound 3 µM
[30] = second compound 10 µM, first compound 0.00949 µM
[31] = second compound 10 µM, first compound 0.03 µM
[32] = second compound 10 µM, first compound 0.0949 µM
[33] = second compound 10 µM, first compound 0.3 µM
[34] = second compound 10 µM, first compound 0.949 µM
[35] = second compound 10 µM, first compound 3 µM

`Cn1cnc2c(F)c(Nc3ccc(Br)cc3Cl)c(C(=O)NOCCO)cc21` + CC(C)NCC(C(=O)N1CCN(c2ncnc3c2C(C)CC3O)CC1)c1ccc(Cl)cc1 showed an IC50 [1] greater than 3000 nM, an IC50 [2] greater than 3000 nM and an IC50 [3] of 1410 nM. It also gave an IC50 [4] of less than 9.49 nM, an IC50 [5] of less than 9.49 nM and a viability, T/C [6] of 87.8%. The viability, T/C [7] was 89.6%, the viability, T/C [8] was 92.5% and the viability, T/C [9] was 86.2%. It also gave a viability, T/C [10] of 95%, a viability, T/C [11] of 82.5% and a viability, T/C [12] of 80.8%. For the same compound, the viability, T/C [13] was 86.2%, the viability, T/C [14] was 89.8% and the viability, T/C [15] was 77.9%. The viability, T/C [16] was 82.5%, the viability, T/C [17] was 67% and the viability, T/C [18] was 58.7%. The viability, T/C [19] was 73.4%, the viability, T/C [20] was 67.4% and the viability, T/C [21] was 50.9%. It also gave a viability, T/C [22] of 54.4%, a viability, T/C [23] of 44.7% and a viability, T/C [24] of 43%. For the same compound, the viability, T/C [25] was 48.5%, the viability, T/C [26] was 43.5% and the viability, T/C [27] was 38.4%. For the same compound, the viability, T/C [28] was 40.8%, the viability, T/C [29] was 31.3% and the viability, T/C [30] was 30.7%. The viability, T/C [31] was 41.4%, the viability, T/C [32] was 37.5% and the viability, T/C [33] was 34.8%. For the same compound, the viability, T/C [34] was 35.5% and the viability, T/C [35] was 27.5%.

With `Cn1ncc(Cl)c1-c1cc(C(=O)NC(CN)Cc2cccc(F)c2)sc1Cl` (configuration not stated) the viability, T/C (compound 0.0316 µM) was 89.2% and 85.5%, the viability, T/C (compound 0.1 µM) was 88.8% and 84.4% and the viability, T/C (compound 0.316 µM) was 79.7% and 72.8%. For the same compound, the viability, T/C (compound 1 µM) was 57.6% and 50.1%, the viability, T/C (compound 3.16 µM) was 8.42% and 19.3% and the viability, T/C (compound 10 µM) was 0.22% and 0.25%. For the same compound, the IC50 (curve of compound) was 1170 nM and 998 nM.

Compound `Cc1nc(NC(=O)N2CCCC2C(N)=O)sc1-c1ccnc(C(C)(C)C(F)(F)F)c1` (configuration not stated) + CCN1CCN(Cc2ccc(Nc3ncc(F)c(-c4cc(F)c5nc(C)n(C(C)C)c5c4)n3)nc2)CC1 has an IC50 (curve of first compound, second compound 0.01 µM) of 3360 nM, an IC50 (curve of first compound, second compound 0.0316 µM) of 2430 nM and an IC50 [1] of 2690 nM. The IC50 [2] was 3500 nM, the IC50 [3] was 2730 nM and the viability, T/C (second compound 0.01 µM, first compound 0.0316 µM) was 104%. It also gave a viability, T/C (second compound 0.01 µM, first compound 0.1 µM) of 93.5%, a viability, T/C (second compound 0.01 µM, first compound 0.316 µM) of 94.8% and a viability, T/C (second compound 0.01 µM, first compound 1 µM) of 72.6%. For the same compound, the viability, T/C (second compound 0.01 µM, first compound 3.16 µM) was 52.2%, the viability, T/C (second compound 0.01 µM, first compound 10 µM) was 23.8% and the viability, T/C (second compound 0.0316 µM, first compound 0.0316 µM) was 112%. It also gave a viability, T/C (second compound 0.0316 µM, first compound 0.1 µM) of 108%, a viability, T/C (second compound 0.0316 µM, first compound 0.316 µM) of 91% and a viability, T/C (second compound 0.0316 µM, first compound 1 µM) of 63.4%. The viability, T/C (second compound 0.0316 µM, first compound 3.16 µM) was 48.7%, the viability, T/C (second compound 0.0316 µM, first compound 10 µM) was 14.2% and the viability, T/C (second compound 0.1 µM, first compound 0.0316 µM) was 106%. For the same compound, the viability, T/C (second compound 0.1 µM, first compound 0.1 µM) was 96.6%, the viability, T/C (second compound 0.1 µM, first compound 0.316 µM) was 76% and the viability, T/C (second compound 0.1 µM, first compound 1 µM) was 59.4%. It also gave a viability, T/C (second compound 0.1 µM, first compound 3.16 µM) of 56.5%, a viability, T/C (second compound 0.1 µM, first compound 10 µM) of 27.3% and a viability, T/C (second compound 0.316 µM, first compound 0.0316 µM) of 93%. It also gave a viability, T/C (second compound 0.316 µM, first compound 0.1 µM) of 105%, a viability, T/C (second compound 0.316 µM, first compound 0.316 µM) of 80.7% and a viability, T/C (second compound 0.316 µM, first compound 1 µM) of 61.4%. For the same compound, the viability, T/C (second compound 0.316 µM, first compound 3.16 µM) was 58.9%, the viability, T/C (second compound 0.316 µM, first compound 10 µM) was 34% and the viability, T/C (second compound 1 µM, first compound 0.0316 µM) was 92.3%. It also gave a viability, T/C (second compound 1 µM, first compound 0.1 µM) of 80.2%, a viability, T/C (second compound 1 µM, first compound 0.316 µM) of 65.6% and a viability, T/C (second compound 1 µM, first compound 1 µM) of 69.4%. For the same compound, the viability, T/C (second compound 1 µM, first compound 3.16 µM) was 48% and the viability, T/C (second compound 1 µM, first compound 10 µM) was 33.1%.

In the case of `CC(C)(C)c1cnc(CSc2cnc(NC(=O)C3CCNCC3)s2)o1` + CC(C)NCC(C(=O)N1CCN(c2ncnc3c2C(C)CC3O)CC1)c1ccc(Cl)cc1, the IC50 [1] is reported as 89.4 nM, the IC50 [2] is reported as 87.5 nM and the IC50 [3] is reported as 81.1 nM. It also gave an IC50 [4] of 40.4 nM, an IC50 [5] of 9.49 nM and a viability, T/C [6] of 87.9%. It also gave a viability, T/C [7] of 98%, a viability, T/C [8] of 47.7% and a viability, T/C [9] of 22.2%. The viability, T/C [10] was 29.6%, the viability, T/C [11] was 32.6% and the viability, T/C [12] was 83.9%. For the same compound, the viability, T/C [13] was 87%, the viability, T/C [14] was 47.3% and the viability, T/C [15] was 22.4%. The viability, T/C [16] was 29%, the viability, T/C [17] was 29.9% and the viability, T/C [18] was 76.5%. It also gave a viability, T/C [19] of 75.6%, a viability, T/C [20] of 45.9% and a viability, T/C [21] of 21.6%. For the same compound, the viability, T/C [22] was 25.3%, the viability, T/C [23] was 28.9% and the viability, T/C [24] was 54.8%. The viability, T/C [25] was 61.6%, the viability, T/C [26] was 26.4% and the viability, T/C [27] was 20.2%. The viability, T/C [28] was 22.2%, the viability, T/C [29] was 24.9% and the viability, T/C [30] was 47.1%. For the same compound, the viability, T/C [31] was 49.8%, the viability, T/C [32] was 14.4% and the viability, T/C [33] was 17.9%. For the same compound, the viability, T/C [34] was 21.1% and the viability, T/C [35] was 22.1%.
